Assay results published in ChEMBL document CHEMBL5038612, “Discovery of a 2,4-diphenyl-5,6-dihydrobenzo(h)quinolin-8-amine derivative as a novel DNA intercalating topoisomerase IIα poison” (Eur J Med Chem, 2021).
pIC50: −log10 of the molar value. Structures can show the parent of a compound that is named as a salt. Active and inactive are the calls of the source. The calls are words filed in the database; no cut-off is given here.

Tests used:
[1] = system: HCT-15; test: Antiproliferative activity against human HCT-15 cells assessed as reduction in cell viability after 48 hrs by Ez-cytoX based microplate reader method; assay type: functional; conditions: HCT-15, 48 h
[2] = target: T1, DNA topoisomerase 2-alpha (Homo sapiens, UniProt P11388); test: Inhibition of human topoisomerase 2 alpha mediated supercoiled pBR322 DNA relaxation at 100 uM by ethidium bromide staining based agarose gel electrophoresis relative to control
T1 sequence (P11388 whole entry): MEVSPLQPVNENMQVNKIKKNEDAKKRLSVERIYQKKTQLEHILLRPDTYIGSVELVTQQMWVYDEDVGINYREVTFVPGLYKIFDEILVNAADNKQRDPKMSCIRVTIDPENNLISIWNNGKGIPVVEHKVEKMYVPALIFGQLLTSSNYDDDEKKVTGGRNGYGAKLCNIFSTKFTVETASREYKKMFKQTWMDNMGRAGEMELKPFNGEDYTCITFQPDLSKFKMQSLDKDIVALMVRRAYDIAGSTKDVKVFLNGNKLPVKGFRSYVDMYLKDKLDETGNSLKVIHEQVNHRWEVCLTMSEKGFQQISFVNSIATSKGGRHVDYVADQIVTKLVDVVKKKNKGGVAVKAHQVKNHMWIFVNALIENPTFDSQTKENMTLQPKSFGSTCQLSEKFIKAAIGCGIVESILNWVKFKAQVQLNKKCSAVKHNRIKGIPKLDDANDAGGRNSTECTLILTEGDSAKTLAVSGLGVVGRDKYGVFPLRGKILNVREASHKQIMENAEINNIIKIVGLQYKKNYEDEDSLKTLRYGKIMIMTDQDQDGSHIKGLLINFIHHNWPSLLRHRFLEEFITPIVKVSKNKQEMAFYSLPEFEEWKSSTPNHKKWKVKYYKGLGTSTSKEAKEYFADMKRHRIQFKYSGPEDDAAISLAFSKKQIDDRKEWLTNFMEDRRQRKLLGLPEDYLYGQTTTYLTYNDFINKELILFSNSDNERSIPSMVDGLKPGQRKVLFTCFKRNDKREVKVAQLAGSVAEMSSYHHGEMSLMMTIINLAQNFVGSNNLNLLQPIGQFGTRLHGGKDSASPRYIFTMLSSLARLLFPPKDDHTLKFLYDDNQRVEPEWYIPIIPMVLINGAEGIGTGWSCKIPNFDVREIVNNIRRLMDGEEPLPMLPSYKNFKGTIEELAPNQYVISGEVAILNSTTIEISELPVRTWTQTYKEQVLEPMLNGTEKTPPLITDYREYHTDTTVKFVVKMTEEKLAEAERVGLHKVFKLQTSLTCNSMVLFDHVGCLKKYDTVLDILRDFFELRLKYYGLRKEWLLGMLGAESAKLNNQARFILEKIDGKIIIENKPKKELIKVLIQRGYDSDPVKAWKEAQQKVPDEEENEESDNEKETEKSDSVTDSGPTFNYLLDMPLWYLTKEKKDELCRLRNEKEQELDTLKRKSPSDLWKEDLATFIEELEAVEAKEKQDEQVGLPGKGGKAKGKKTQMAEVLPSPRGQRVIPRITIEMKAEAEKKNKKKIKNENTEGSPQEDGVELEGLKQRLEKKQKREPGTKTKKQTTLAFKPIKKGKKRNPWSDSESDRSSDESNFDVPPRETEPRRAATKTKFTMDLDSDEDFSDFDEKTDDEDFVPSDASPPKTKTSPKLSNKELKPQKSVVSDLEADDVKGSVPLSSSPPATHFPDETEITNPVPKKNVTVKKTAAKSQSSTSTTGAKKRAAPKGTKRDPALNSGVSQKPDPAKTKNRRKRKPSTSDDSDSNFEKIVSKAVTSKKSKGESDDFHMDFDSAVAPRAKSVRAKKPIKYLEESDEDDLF

[3] = system: HeLa; test: Antiproliferative activity against human HeLa cells assessed as reduction in cell viability after 48 hrs by Ez-cytoX based microplate reader method; assay type: functional
[4] = target: DNA topoisomerase 2-beta (Homo sapiens) (UniProt Q02880); test: Inhibition of human topoisomerase 2 beta mediated supercoiled pBR322 DNA relaxation at 2 uM by ethidium bromide staining based agarose gel electrophoresis relative to control
Chain of DNA topoisomerase 2-beta (Homo sapiens) (Q02880 whole entry): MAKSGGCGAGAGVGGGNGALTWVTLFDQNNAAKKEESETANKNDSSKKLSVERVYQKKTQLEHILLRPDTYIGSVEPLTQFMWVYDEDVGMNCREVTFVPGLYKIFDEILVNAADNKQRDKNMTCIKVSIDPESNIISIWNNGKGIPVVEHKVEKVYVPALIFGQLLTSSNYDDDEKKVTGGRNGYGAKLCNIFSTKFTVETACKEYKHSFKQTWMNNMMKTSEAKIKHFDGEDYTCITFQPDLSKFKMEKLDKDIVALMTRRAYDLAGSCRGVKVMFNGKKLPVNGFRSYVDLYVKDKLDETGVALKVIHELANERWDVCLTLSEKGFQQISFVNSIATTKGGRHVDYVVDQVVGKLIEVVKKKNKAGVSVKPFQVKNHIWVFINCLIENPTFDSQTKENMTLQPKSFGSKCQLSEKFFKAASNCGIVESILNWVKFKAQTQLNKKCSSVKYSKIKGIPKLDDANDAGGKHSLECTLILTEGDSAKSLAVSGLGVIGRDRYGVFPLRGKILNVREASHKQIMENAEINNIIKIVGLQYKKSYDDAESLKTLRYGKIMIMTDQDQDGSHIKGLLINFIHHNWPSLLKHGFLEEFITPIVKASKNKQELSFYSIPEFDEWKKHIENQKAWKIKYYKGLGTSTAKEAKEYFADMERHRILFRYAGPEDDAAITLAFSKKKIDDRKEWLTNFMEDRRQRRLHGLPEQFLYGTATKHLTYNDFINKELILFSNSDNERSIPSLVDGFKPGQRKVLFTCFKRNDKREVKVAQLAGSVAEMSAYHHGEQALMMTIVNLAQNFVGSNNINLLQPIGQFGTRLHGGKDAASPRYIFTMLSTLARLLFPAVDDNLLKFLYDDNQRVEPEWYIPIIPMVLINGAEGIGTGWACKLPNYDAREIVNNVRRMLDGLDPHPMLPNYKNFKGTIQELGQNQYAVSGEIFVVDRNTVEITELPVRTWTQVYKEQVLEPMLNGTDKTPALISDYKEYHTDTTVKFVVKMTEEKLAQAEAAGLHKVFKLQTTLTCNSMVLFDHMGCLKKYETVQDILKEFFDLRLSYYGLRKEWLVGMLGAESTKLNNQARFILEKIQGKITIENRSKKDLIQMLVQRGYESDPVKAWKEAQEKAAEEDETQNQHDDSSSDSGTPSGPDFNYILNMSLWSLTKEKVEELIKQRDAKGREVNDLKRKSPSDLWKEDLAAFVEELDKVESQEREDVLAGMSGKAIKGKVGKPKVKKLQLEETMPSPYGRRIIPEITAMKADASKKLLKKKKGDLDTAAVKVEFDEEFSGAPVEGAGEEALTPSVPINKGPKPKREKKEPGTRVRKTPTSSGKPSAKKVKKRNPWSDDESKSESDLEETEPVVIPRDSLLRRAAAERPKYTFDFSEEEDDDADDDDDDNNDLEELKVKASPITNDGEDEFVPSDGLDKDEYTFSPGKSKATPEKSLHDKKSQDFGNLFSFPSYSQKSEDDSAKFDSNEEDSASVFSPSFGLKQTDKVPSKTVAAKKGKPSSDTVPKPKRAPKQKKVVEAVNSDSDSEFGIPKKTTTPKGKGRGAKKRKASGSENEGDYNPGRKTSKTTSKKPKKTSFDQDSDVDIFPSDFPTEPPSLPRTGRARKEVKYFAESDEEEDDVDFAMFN

[5] = target: T1, DNA topoisomerase 2-alpha; test: Inhibition of human topoisomerase 2 alpha mediated supercoiled pBR322 DNA relaxation at 1 uM by ethidium bromide staining based agarose gel electrophoresis relative to control
[6] = target: T1, DNA topoisomerase 2-alpha; test: Inhibition of human topoisomerase 2 alpha mediated supercoiled pBR322 DNA relaxation at 2 uM by ethidium bromide staining based agarose gel electrophoresis relative to control
[7] = target: T1, DNA topoisomerase 2-alpha; test: Inhibition of human topoisomerase 2 alpha mediated supercoiled pBR322 DNA relaxation at 10 uM by ethidium bromide staining based agarose gel electrophoresis relative to control
[8] = target: T1, DNA topoisomerase 2-alpha; test: Inhibition of human topoisomerase 2 alpha mediated supercoiled pBR322 DNA relaxation by ethidium bromide staining based agarose gel electrophoresis
[9] = system: BT-474; test: Antiproliferative activity against human BT-474 cells assessed as reduction in cell viability after 48 hrs by Ez-cytoX based microplate reader method; assay type: functional; conditions: BT-474, 48 h
[10] = target: T1, DNA topoisomerase 2-alpha; test: Inhibition of human topoisomerase 2 alpha mediated supercoiled pBR322 DNA relaxation at 5 uM by ethidium bromide staining based agarose gel electrophoresis relative to control
[11] = system: DU-145; test: Antiproliferative activity against human DU-145 cells assessed as reduction in cell viability after 48 hrs by Ez-cytoX based microplate reader method; assay type: functional; conditions: DU-145, 48 h
[12] = system: SK-OV-3; test: Antiproliferative activity against human SK-OV-3 cells assessed as reduction in cell viability after 48 hrs by Ez-cytoX based microplate reader method; assay type: functional; conditions: SK-OV-3, 48 h
[13] = system: Calf thymus DNA; test: Binding affinity to calf thymus DNA assessed as DNA intercalation at 10 to 100 uM by fluorescence based EtBr-displacement assay; assay type: nucleic-acid assay; conditions: Bos taurus; dose 10-100 µM
[14] = target: DNA topoisomerase 2-beta (Homo sapiens) (UniProt Q02880); test: Inhibition of human topoisomerase 2 beta mediated supercoiled pBR322 DNA relaxation at 5 uM by ethidium bromide staining based agarose gel electrophoresis relative to control
[15] = system: LNCaP-Clone-FGC; test: Antiproliferative activity against human LNCaP-Clone-FGC cells assessed as reduction in cell viability after 48 hrs by Ez-cytoX based microplate reader method; assay type: functional
[16] = system: Calf thymus DNA; test: Binding affinity to calf thymus DNA assessed as DNA intercalation at 100 uM by fluorescence based EtBr-displacement assay relative to control; assay type: nucleic-acid assay; conditions: Bos taurus
[17] = system: LNCaP; test: Antiproliferative activity against human LNCaP-LN3 cells assessed as reduction in cell viability after 48 hrs by Ez-cytoX based microplate reader method; assay type: functional
[18] = target: DNA topoisomerase 2-beta (Homo sapiens) (UniProt Q02880); test: Inhibition of human topoisomerase 2 beta mediated supercoiled pBR322 DNA relaxation at 100 uM by ethidium bromide staining based agarose gel electrophoresis relative to control

With `Nc1ccc2c(c1)CCc1c(-c3ccccc3)cc(-c3ccccc3O)nc1-2` the pIC50 [1] was 5.46, the inhibition [2] was 0% and the pIC50 [3] was 4.48.

`Nc1ccc2c(c1)CCc1c(-c3ccc(OC(F)(F)F)cc3)cc(-c3ccc(O)cc3)nc1-2` was tested, and the pIC50 [1] was 5.69, the inhibition [2] was 36.5% and the pIC50 [3] was 5.23.

`Nc1ccc2c(c1)CCc1c(-c3ccc(C(F)(F)F)cc3)cc(-c3ccc(O)cc3)nc1-2` showed a pIC50 [1] of 5.56, an inhibition [2] of 77.8% and a pIC50 [3] of 5.26.

With `Nc1ccc2c(c1)CCc1c(-c3ccc(OC(F)(F)F)cc3)cc(-c3ccccc3O)nc1-2` the pIC50 [1] was < 4.30, the inhibition [2] was 30.2% and the pIC50 [3] was < 4.30.

`Nc1ccc2c(c1)CCc1c(-c3cccc(OC(F)(F)F)c3)cc(-c3ccc(O)cc3)nc1-2` was tested, and the pIC50 [1] was 5.75, the inhibition [2] was 36.5% and the pIC50 [3] was 5.42.

`COc1cccc2c1C(=O)c1c(O)c3c(c(O)c1C2=O)C[C@@](O)(C(=O)CO)C[C@@H]3O[C@H]1C[C@H](N)[C@H](O)[C@H](C)O1` [DOXORUBICIN HYDROCHLORIDE] was tested, and the pIC50 [1] was 5.72.

`Nc1ccc2c(c1)CCc1c(-c3ccccc3)cc(-c3ccc(O)cc3)nc1-2` showed a pIC50 [1] of 5.42, an inhibition [2] of 21.7% and a pIC50 [3] of 5.18.

Molecule `Nc1ccc2c(c1)CCc1c(-c3cccc(OC(F)(F)F)c3)cc(-c3cccc(O)c3)nc1-2` has a pIC50 [1] of 5.74, an inhibition [2] of 60% and a pIC50 [3] of 5.34.

With `Nc1ccc2c(c1)CCc1c(-c3ccccc3F)cc(-c3cccc(O)c3)nc1-2` the pIC50 [1] was 5.72, the inhibition [2] was 4.3% and the pIC50 [3] was 5.27.

`Nc1ccc2c(c1)CCc1c(-c3ccc(F)cc3)cc(-c3ccc(O)cc3)nc1-2` was tested, and the pIC50 [1] was 5.53, the inhibition [2] was 77.6% and the pIC50 [3] was 5.25.

In the case of `Nc1ccc2c(c1)CCc1c(-c3cccc(C(F)(F)F)c3)cc(-c3ccccc3O)nc1-2`, the pIC50 [1] was 5.64, the inhibition [2] was 25.7% and the pIC50 [3] was 5.12.

`Nc1ccc2c(c1)CCc1c(-c3ccccc3OC(F)(F)F)cc(-c3ccccc3O)nc1-2` showed a pIC50 [1] of 5.54, an inhibition [2] of 70% and a pIC50 [3] of 5.26.

Work on `Nc1ccc2c(c1)CCc1c(-c3ccccc3C(F)(F)F)cc(-c3ccc(O)cc3)nc1-2` yielded an inhibition [4] of 19.6%, an inhibition [5] of 22.3% and an inhibition [6] of 34.4%. For the same molecule, the inhibition [7] was 66.2%, the pIC50 [1] was 5.70 and the pIC50 [8] was 5.45. The pIC50 [9] was 5.29, the inhibition [10] was 57% and the pIC50 [11] was 5.81. For the same molecule, the inhibition [2] was 81.9%, the pIC50 [12] was 5.78 and the Activity [13] was “Dose-Dependent Effect”. For the same molecule, the inhibition [14] was 21.7%, the pIC50 [15] was 5.14 and the Activity [16] was “inactive”. The pIC50 [17] was 5.25, the pIC50 [3] was 5.29 and the inhibition [18] was 82.6%.

Molecule `Nc1ccc2c(c1)CCc1c(-c3ccccc3C(F)(F)F)cc(-c3cccc(O)c3)nc1-2` has a pIC50 [1] of 5.53, an inhibition [2] of 87.4% and a pIC50 [3] of 5.27.

`Nc1ccc2c(c1)CCc1c(-c3ccc(F)cc3)cc(-c3ccccc3O)nc1-2` was tested, and the pIC50 [1] was < 4.30, the inhibition [2] was 1.2% and the pIC50 [3] was < 4.30.

With `Nc1ccc2c(c1)CCc1c(-c3ccccc3F)cc(-c3ccc(O)cc3)nc1-2` the pIC50 [1] was 5.82, the inhibition [2] was 25.3% and the pIC50 [3] was 5.49.

`Nc1ccc2c(c1)CCc1c(-c3cccc(F)c3)cc(-c3cccc(O)c3)nc1-2` gave a pIC50 [1] of 5.41, an inhibition [2] of 3.4% and a pIC50 [3] of 5.38.

In the case of `Nc1ccc2c(c1)CCc1c(-c3ccc(OC(F)(F)F)cc3)cc(-c3cccc(O)c3)nc1-2`, the pIC50 [1] was 5.57, the inhibition [2] was 49% and the pIC50 [3] was 5.25.

Molecule `Nc1ccc2c(c1)CCc1c(-c3cccc(C(F)(F)F)c3)cc(-c3ccc(O)cc3)nc1-2` has a pIC50 [1] of 5.70, an inhibition [2] of 75% and a pIC50 [3] of 5.29.

In the case of `Nc1ccc2c(c1)CCc1c(-c3cccc(C(F)(F)F)c3)cc(-c3cccc(O)c3)nc1-2`, the pIC50 [1] was 5.61, the inhibition [2] was 62.9% and the pIC50 [3] was 5.35.

With `Nc1ccc2c(c1)CCc1c(-c3ccccc3OC(F)(F)F)cc(-c3cccc(O)c3)nc1-2` the pIC50 [1] was 5.25, the inhibition [2] was 62.8% and the pIC50 [3] was 5.47.

`Nc1ccc2c(c1)CCc1c(-c3ccc(C(F)(F)F)cc3)cc(-c3cccc(O)c3)nc1-2` was tested, and the pIC50 [1] was 5.63, the inhibition [2] was 72.4% and the pIC50 [3] was 5.30.

Molecule `COc1cc([C@@H]2c3cc4c(cc3[C@@H](O[C@@H]3O[C@@H]5CO[C@@H](C)O[C@H]5[C@H](O)[C@H]3O)[C@H]3COC(=O)[C@H]23)OCO4)cc(OC)c1O` [ETOPOSIDE] has a pIC50 [3] of 5.08.

In the case of `Nc1ccc2c(c1)CCc1c(-c3ccccc3F)cc(-c3ccccc3O)nc1-2`, the pIC50 [1] was 5.95, the inhibition [2] was 1.2% and the pIC50 [3] was 4.64.

Work on `Nc1ccc2c(c1)CCc1c(-c3cccc(F)c3)cc(-c3ccccc3O)nc1-2` yielded a pIC50 [1] of 5.65, an inhibition [2] of 1.3% and a pIC50 [3] of 5.09.

In the case of `Nc1ccc2c(c1)CCc1c(-c3ccc(F)cc3)cc(-c3cccc(O)c3)nc1-2`, the pIC50 [1] was 5.54, the inhibition [2] was 3.9% and the pIC50 [3] was 5.29.

Molecule `Nc1ccc2c(c1)CCc1c(-c3ccccc3C(F)(F)F)cc(-c3ccccc3O)nc1-2` has a pIC50 [1] of 5.91, an inhibition [2] of 29.3% and a pIC50 [3] of 5.18.

For `Nc1ccc2c(c1)CCc1c(-c3ccccc3)cc(-c3cccc(O)c3)nc1-2`, the pIC50 [1] was 5.48, the inhibition [2] was 1.5% and the pIC50 [3] was 5.39.

`Nc1ccc2c(c1)CCc1c(-c3ccccc3OC(F)(F)F)cc(-c3ccc(O)cc3)nc1-2` showed a pIC50 [1] of 5.53, an inhibition [2] of 72.5% and a pIC50 [3] of 5.54.

With `Nc1ccc2c(c1)CCc1c(-c3cccc(F)c3)cc(-c3ccc(O)cc3)nc1-2` the pIC50 [1] was 5.73, the inhibition [2] was 10.5% and the pIC50 [3] was 5.30.

In the case of `Nc1ccc2c(c1)CCc1c(-c3ccc(C(F)(F)F)cc3)cc(-c3ccccc3O)nc1-2`, the pIC50 [1] was < 4.30, the inhibition [2] was 28.8% and the pIC50 [3] was < 4.30.
